The values below are quoted from earlier work in US12268662B2, “Formulations comprising carbachol and brimonidine to enhance anti- presbyopia effects” (VISUS THERAPEUTICS, INC., priority 2021, dated 2025).

Structures are written as SMILES.

For orientation: log P means a log measure of how a compound divides between an organic and an aqueous phase.

Assay in series [1]: not given
The source holds these as a separate data set.

Assay in series [2]: not given
The source holds these as a separate data set.

`C[N+](C)(C)CCOC(N)=O` [Carbachol]: the “log P” value was −3.78. Further, in series [1], the pKa result is given as “about 15”. Moreover, the solubility in series [2] was 1 gm/mL.
